Laboratory results reported in publication PMC2866539, “HLA Class I Binding 9mer Peptides from Influenza A Virus Induce CD4^+ T Cell Responses” (PLoS ONE, 2010).
Where no end group is shown, it is not given here.

What was measured:
Assay in all cases: biochemical
Assay type in all cases: binding
[1] = target: T1, DRA1*0101/DRB1*0401 (Homo sapiens, UniProt P01903+P01911, A100K/A169T/F76Y/I96L/K127E/L162R/M171V/N62H/P40V/Q125Y/R42H/S133A/S149N/S66Y/V115G/V209L/W38E)
T1 construct: made in house

[2] = target: DRA1*0101/DRB1*0301 (Homo sapiens, UniProt P01903+P01911, A100K/A102G/A103R/A169T/F55Y/I96L/K41T/L162R/M171V/P40S/Q125H/Q178H/Q39Y/R42S/S66N/T106N/T262R/W38E/Y61H)
[3] = target: DRA1*0101/DRB1*0302 (Homo sapiens, UniProt P01903+P01911, A100K/A102G/A103R/A169T/D57E/F76Y/I96L/K41T/L162R/M171V/P40S/Q125H/Q178H/Q39Y/R42S/S66N/T106N/T262R/V115G/W38E/Y61H)
[4] = target: T2, DRA1*0101/DRB1*0101 (Homo sapiens, UniProt P01903+P01911, A100R/D57E/F55L/F60I/F76Y/I96L/L162R/M171V/P40L/Q125E/R42F/V115G/Y59C)
T2 construct: made in house

[5] = target: DRA1*0101/DRB3*0301 (Homo sapiens, UniProt P01903+P79483, A169T/A212P/D57E/G115V/L67V/Q178H/R103Q/R40L/Y55F)
Sequence of DRA1*0101/DRB3*0301 (P01903 26-254 limits assumed): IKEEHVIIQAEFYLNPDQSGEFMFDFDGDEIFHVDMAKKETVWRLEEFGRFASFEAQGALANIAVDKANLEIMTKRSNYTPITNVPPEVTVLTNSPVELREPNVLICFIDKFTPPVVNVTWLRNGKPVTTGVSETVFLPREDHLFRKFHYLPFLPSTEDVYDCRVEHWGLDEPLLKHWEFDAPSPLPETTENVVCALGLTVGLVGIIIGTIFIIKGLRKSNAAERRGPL
Sequence of DRA1*0101/DRB3*0301 (P79483 30-266 R40L/Y55F/D57E/L67V/R103Q/G115V/A169T/Q178H/A212P limits assumed): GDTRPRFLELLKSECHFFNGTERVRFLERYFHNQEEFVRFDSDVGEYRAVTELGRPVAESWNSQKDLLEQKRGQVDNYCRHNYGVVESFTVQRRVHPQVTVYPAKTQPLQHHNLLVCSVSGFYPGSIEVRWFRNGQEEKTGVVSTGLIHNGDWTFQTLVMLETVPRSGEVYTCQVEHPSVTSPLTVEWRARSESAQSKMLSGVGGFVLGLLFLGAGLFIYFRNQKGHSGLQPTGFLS

Sequence of DRA1*0101/DRB1*0301 (P01903 26-254 limits assumed, other chains not shown): as the sequence (P01903 26-254 limits assumed) above

YILLKKILSSRFNQM [hypothetical protein 239–253, reference compound]
Kd [1]: 107 nM
Kd [2]: 20 nM
Kd [3]: 156 nM
Kd [4]: 435 nM
Kd [5]: 3 nM
